The subject of one assay is GLUT4. As to the kind of experiment: GLUT4 translocation in L6 myotubes after siRNA knockdown of AMPKα, JAK2 or JAK3. The note with it: 1 nM quercetin or isorhamnetin. Type of assay: cell-based, rat. On the procedure:
(§1) For in vitro cell culture experiments, after serum starvation for 18 h, myotubes were treated with various concentrations of quercetin or isorhamnetin (0.1–10 nM) for 15 min; DMSO (final 0.1%) was used as a vehicle control. As positive controls, 100 nM insulin, 1 mM AICAR, 10 nM leptin, or 100 ng/mL IL-15 were used for insulin, AMPK, JAK2/STAT, or JAK3/STAT signalling pathways, respectively. Cells were treated with insulin or AICAR for 15 min, leptin for 60 min, or IL-15 for 24 h. Whole protein and plasma membrane fractions were prepared from myotubes, as previously described. For in vivo experiment, plasma membrane fraction and tissue lysate of soleus muscle were prepared.
(§2) Translocation of GLUT4 to the plasma membrane, as well as expression and phosphorylation levels of GLUT4-related regulators were estimated by western blot analysis. Briefly, equal amounts of proteins were separated by sodium dodecyl sulfate-polyacrylamide gel electrophoresis (SDS-PAGE). Separated proteins were transferred onto a polyvinylidene fluoride membrane and nonspecific binding sites were blocked using either Blocking One (to detect unphosphorylated proteins) or Blocking One-P (to detect phosphoproteins). The membrane was incubated overnight with an appropriate primary antibody for GLUT4 (1:5000), IR (1:10000), p-IRS1 (1:5000), IRS1 (1:5000), p-PI3K (1:5000), PI3K (1:10000), p-Akt (1:5000), Akt (1:10000), p-AMPKα (1:5000), AMPKα (1:10000), p-ACC (1:5000), ACC (1:10000), p-LKB1 (1:5000), LKB1 (1:10000), p-JAK2 (1:5000), JAK2 (1:5000), p-JAK3 (1:5000), JAK3 (1:10000), p-STAT1 (1:5000), STAT1 (1:10000), p-STAT3 (1:5000), STAT3 (1:10000), p-STAT5 (1:5000), STAT5 (1:10000), or β-actin (1:20000), and subsequently treated with the corresponding horseradish peroxidase-conjugated secondary antibody (1:50000) for 1 h. Specific immune complexes were developed using ImmunoStar® LD and detected with an ATTO Light-Capture II Western Blotting Detection System. Individual band density was calculated by ImageJ and normalized to the control.
Mature myotubes were cultured in antibiotic-free medium and transfected with siRNA at a final concentration of 50 nM using Lipofectamine RNAiMAX transfection reagent according to the manufacturer’s instructions. In brief, mature myotubes were transfected with siRNA in Opti-MEM for 48 h. Subsequently, the medium was changed to fresh Opti-MEM and cells were treated with the indicated concentrations of quercetin or isorhamnetin.

A further assay concerns AMPK. Kind of assay: Phosphorylation of AMPK in L6 myotubes (western blot). The format is cell-based, rat. On the procedure: In vitro cultured cell experiments were conducted according to a previously described protocol[6],[14]. Briefly, L6 myoblasts derived from rat skeletal muscle and of less than 40 passages were maintained in MEM supplemented with 10% foetal bovine serum (FBS) and antibiotics (100 U/ml penicillin and 100 μg/ml streptomycin) at 37 °C under a humidified atmosphere condition of 5% CO2 and 95% air. In each experiment, cells (2.2 × 10^4 cells/ml) were seeded into 96-well plates or 60-mm dishes for induction of differentiation into mature myotubes. After reaching confluence, cells were supplemented with differentiation medium containing 2% FBS and the same antibiotics for 7 days. Cells were used for each experiment after morphological analysis of differentiation status using phase-contrast microscopy. To explore the contribution of CaMKKβ or intracellular-free calcium ions in quercetin- and isorhamnetin-stimulated GLUT4 translocation, L6 cells were incubated in the presence or absence of 10 μM STO-609 and 25 μM […], respectively, for 30 min prior to treatment with either quercetin or isorhamnetin.
as §1, §2
42 after morphological analysis of differentiation status using phase-contrast microscopy.
43 Preparation of whole protein and plasma membrane fractions After serum starvation
44 for 18 h, myotubes were treated with various concentrations of quercetin or isorhamnetin (1–
45 10 μM) for 15 min; DMSO (final 0.1%) was used as a vehicle control. As positive controls, […]
A general note: In western blotting, separated proteins are transferred to a membrane and probed.

For the compound `NC(=O)c1ncn([C@@H]2O[C@H](CO)[C@@H](O)[C@H]2O)c1N` [AICAR, 5-aminoimidazole-4-carboxyamide ribonucleoside, reference compound], the “compound-induced GLUT4 translocation after siRNA for AMPK” value in the assay on GLUT4 (siAMPKα 50 nM 48 h, 1 mM AICAR) is “almost completely abolished”.
Take `O=C(O)c1ccc2c3c1cccc3c(=O)n1c3ccccc3nc21` [STO-609, reference compound]: the “effect on quercetin-induced AMPK phosphorylation” value in the assay with AMPK (10 μM STO-609 for 30 min prior to 1 nM quercetin) is given as “abolished”.
Regarding `CC(=O)OCOC(=O)CN(CC(=O)OCOC(C)=O)c1ccccc1OCCOc1ccccc1N(CC(=O)OCOC(C)=O)CC(=O)OCOC(C)=O` [BAPTA-AM, 1,2-Bis (2-aminophenoxy) ethane-N,N,N′,N′-tetraacetic acid tetrakis (acetoxymethyl ester), reference compound], the “effect on quercetin-induced AMPK phosphorylation” value in the assay with AMPK (25 μM BAPTA-AM for 30 min prior to 1 nM quercetin) is “did not affect”.
With “leptin: positive control for JAK2/STAT signalling pathway”, the “compound-induced GLUT4 translocation after siRNA for JAK2” value with GLUT4 (siJAK2 50 nM 48 h, 10 nM leptin) is “abolished”.
